Assay results: PubChem BioAssay AID248 (DTP/NCI, 2004)
Where “and” joins values, the source holds several entries; their conditions need not be identical. Equal values may be shown once. Inconclusive results and toxic doses are left out.

Tested on: L1210 leukemia ip in BDF1 mice, survival T/C
Assay: NCI In Vivo Anticancer Drug Screen. Data for tumor model L1210 Leukemia (intraperitoneal) in B6D2F1 (BDF1) mice
Conditions: endpoint: mean survival time, higher = longer survival
Summary of the method: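 Value reflects the ratio of survival in compound-treated mice to survival in vehicle-treated controls, with both groups carrying the same transplanted tumor.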

[1] = dose: 100.0 mg/kg/injection, schedule: Q04DX002 (ip), vehicle: Klucel (hydroxypropylcellulose) (HPC)
[2] = dose: 100.0 mg/kg/injection, schedule: Q04DX003 (ip), vehicle: saline with Tween-80
[3] = dose: 400.0 mg/kg/injection, schedule: Q01DX001 (ip), vehicle: other
[4] = dose: 100.0 mg/kg/injection, schedule: Q01DX009 (ip), vehicle: Klucel (hydroxypropylcellulose) (HPC)
[5] = dose: 200.0 mg/kg/injection, schedule: Q01DX009 (ip), vehicle: saline
[6] = dose: 100.0 mg/kg/injection, schedule: Q01DX009 (ip), vehicle: saline with Tween-80
[7] = dose: 200.0 mg/kg/injection, schedule: Q01DX009 (ip), vehicle: saline with Tween-80
[8] = dose: 50.0 mg/kg/injection, schedule: Q01DX009 (ip), vehicle: saline
[9] = dose: 100.0 mg/kg/injection, schedule: Q01DX009 (ip), vehicle: saline

## O=C(O)C1CCN1Cc1ccccc1 (configuration not stated)
dose: 100.0 mg/kg/injection, schedule: Q04DX003 (ip), vehicle: saline
  T/C: 98 % of control
dose: 200.0 mg/kg/injection, schedule: Q04DX003 (ip), vehicle: saline
  T/C: 101 % of control
dose: 400.0 mg/kg/injection, schedule: Q04DX003 (ip), vehicle: saline
  T/C: 106 % of control

## CN(CCNC(=O)NCCCCCCNC(=O)NCCN(C)c1ccccc1)c1ccccc1
[1]
  T/C: 105 % of control
dose: 200.0 mg/kg/injection, schedule: Q04DX002 (ip), vehicle: Klucel (hydroxypropylcellulose) (HPC)
  T/C: 97 % of control
dose: 400.0 mg/kg/injection, schedule: Q04DX002 (ip), vehicle: Klucel (hydroxypropylcellulose) (HPC)
  T/C: 108 % of control

## O=C(O)COc1cc(Cl)c(Cl)cc1Cl
dose: 50.0 mg/kg/injection, schedule: Q01DX001 (ip), vehicle: carboxymethylcellulose (CMC)
  T/C: 102 % of control
dose: 100.0 mg/kg/injection, schedule: Q01DX001 (ip), vehicle: carboxymethylcellulose (CMC)
  T/C: 106 % of control
[2]
  T/C: 100 % of control
dose: 200.0 mg/kg/injection, schedule: Q01DX001 (ip), vehicle: carboxymethylcellulose (CMC)
  T/C: 112 % of control
dose: 200.0 mg/kg/injection, schedule: Q04DX003 (ip), vehicle: saline with Tween-80
  T/C: 103 % of control
dose: 400.0 mg/kg/injection, schedule: Q01DX001 (ip), vehicle: carboxymethylcellulose (CMC)
  T/C: 108 % of control
dose: 400.0 mg/kg/injection, schedule: Q04DX003 (ip), vehicle: saline with Tween-80
  T/C: 100 % of control

## CC(=O)Oc1cc(-c2ccc3c(c2)C2(C)c4cc(OC(C)=O)c5ccccc5c4OC2(C)N3C)c(OC(C)=O)c2ccccc12 (configuration not stated)
dose: 100.0 mg/kg/injection, schedule: Q01DX001 (ip), vehicle: other
  T/C: 92 % of control
dose: 200.0 mg/kg/injection, schedule: Q01DX001 (ip), vehicle: other
  T/C: 88 % of control
[3]
  T/C: 92 % of control

## O=C(O)c1ccc(Nc2c3ccccc3nc3ccccc23)cc1
dose: 50.0 mg/kg/injection, schedule: Q01DX009 (ip), vehicle: Klucel (hydroxypropylcellulose) (HPC)
  T/C: 177 % of control
[4]
  T/C: 243 % of control

## O=C(OCCO)c1ccc(O)cc1
dose: 100.0 mg/kg/injection, schedule: Q01DX001 (ip), vehicle: saline
  T/C: 88 % of control
dose: 200.0 mg/kg/injection, schedule: Q01DX001 (ip), vehicle: saline
  T/C: 93 % of control
dose: 400.0 mg/kg/injection, schedule: Q01DX001 (ip), vehicle: saline
  T/C: 88 % of control

## Oc1ccc(O)c2[nH]c(-c3ccc(Cl)cc3)cc12
dose: 25.0 mg/kg/injection, schedule: Q04DX002 (ip), vehicle: Klucel (hydroxypropylcellulose) (HPC)
  T/C: 94 % of control
dose: 50.0 mg/kg/injection, schedule: Q04DX002 (ip), vehicle: Klucel (hydroxypropylcellulose) (HPC)
  T/C: 100 % of control
[1]
  T/C: 100 % of control

## CCCSc1nc(N)nc2nc[nH]c12
dose: 1.25 mg/kg/injection, schedule: Q01DX Z (ip), vehicle: carboxymethylcellulose (CMC)
  T/C: 91 % of control
dose: 2.5 mg/kg/injection, schedule: Q01DX Z (ip), vehicle: carboxymethylcellulose (CMC)
  T/C: 114 % of control
dose: 2.9 mg/kg/injection, schedule: Q01DX Z (ip), vehicle: carboxymethylcellulose (CMC)
  T/C: 114 % of control
dose: 4.4 mg/kg/injection, schedule: Q01DX Z (ip), vehicle: carboxymethylcellulose (CMC)
  T/C: 116 % of control
dose: 5.0 mg/kg/injection, schedule: Q01DX Z (ip), vehicle: carboxymethylcellulose (CMC)
  T/C: 118 % of control
dose: 8.3 mg/kg/injection, schedule: Q01DX009 (ip), vehicle: saline
  T/C: 102 % of control
dose: 12.0 mg/kg/injection, schedule: Q01DX009 (ip), vehicle: saline
  T/C: 105 % of control
dose: 20.0 mg/kg/injection, schedule: Q01DX Z (ip), vehicle: carboxymethylcellulose (CMC)
  T/C: 151 % of control and 168 % of control
dose: 29.0 mg/kg/injection, schedule: Q01DX009 (ip), vehicle: Klucel (hydroxypropylcellulose) (HPC)
  T/C: 121 % of control
dose: 40.0 mg/kg/injection, schedule: Q01DX Z (ip), vehicle: carboxymethylcellulose (CMC)
  T/C: 150 % of control and 153 % of control and 156 % of control
dose: 62.0 mg/kg/injection, schedule: Q01DX001 (ip), vehicle: other
  T/C: 108 % of control
dose: 62.0 mg/kg/injection, schedule: Q## X001 (ip), vehicle: other
  T/C: 119 % of control
dose: 90.0 mg/kg/injection, schedule: Q01DX Z (ip), vehicle: carboxymethylcellulose (CMC)
  T/C: 105 % of control
dose: 125.0 mg/kg/injection, schedule: Q01DX001 (ip), vehicle: other
  T/C: 118 % of control and 88 % of control
dose: 125.0 mg/kg/injection, schedule: Q## X001 (ip), vehicle: other
  T/C: 123 % of control
dose: 135.0 mg/kg/injection, schedule: Q01DX Z (ip), vehicle: carboxymethylcellulose (CMC)
  T/C: 92 % of control
dose: 160.0 mg/kg/injection, schedule: Q01DX Z (ip), vehicle: carboxymethylcellulose (CMC)
  T/C: 151 % of control
[5]
  T/C: 90 % of control
dose: 250.0 mg/kg/injection, schedule: Q01DX001 (ip), vehicle: other
  T/C: 120 % of control and 124 % of control
dose: 300.0 mg/kg/injection, schedule: Q01DX001 (ip), vehicle: other
  T/C: 115 % of control and 118 % of control
dose: 300.0 mg/kg/injection, schedule: Q## X001 (ip), vehicle: other
  T/C: 117 % of control
[3]
  T/C: 101 % of control
dose: 400.0 mg/kg/injection, schedule: Q## X001 (ip), vehicle: other
  T/C: 101 % of control
dose: 500.0 mg/kg/injection, schedule: Q## X001 (ip), vehicle: other
  T/C: 203 % of control

## Cc1cc(C)c(NC(=O)Nc2cccc(Cl)c2)c(C)c1
[4]
  T/C: 100 % of control
dose: 100.0 mg/kg/injection, schedule: Q04DX003 (ip), vehicle: Klucel (hydroxypropylcellulose) (HPC)
  T/C: 101 % of control
dose: 200.0 mg/kg/injection, schedule: Q01DX009 (ip), vehicle: Klucel (hydroxypropylcellulose) (HPC)
  T/C: 105 % of control
dose: 200.0 mg/kg/injection, schedule: Q04DX003 (ip), vehicle: Klucel (hydroxypropylcellulose) (HPC)
  T/C: 94 % of control
dose: 400.0 mg/kg/injection, schedule: Q04DX003 (ip), vehicle: Klucel (hydroxypropylcellulose) (HPC)
  T/C: 89 % of control

## CCOC(=O)C(C(=O)c1ccccc1)c1cc(NS(=O)(=O)c2ccccc2)ccc1O (configuration not stated)
dose: 12.5 mg/kg/injection, schedule: Q01DX009 (ip), vehicle: saline with Tween-80
  T/C: 90 % of control
dose: 25.0 mg/kg/injection, schedule: Q01DX009 (ip), vehicle: saline with Tween-80
  T/C: 95 % of control
dose: 50.0 mg/kg/injection, schedule: Q01DX009 (ip), vehicle: saline with Tween-80
  T/C: 94 % of control and 97 % of control
[6]
  T/C: 86 % of control
[2]
  T/C: 91 % of control
[7]
  T/C: 86 % of control

## O=C(Nc1ccccc1[N+](=O)[O-])c1ccccc1
[6]
  T/C: 111 % of control
[7]
  T/C: 106 % of control
dose: 400.0 mg/kg/injection, schedule: Q01DX009 (ip), vehicle: saline with Tween-80
  T/C: 106 % of control

## CN1CCN(C(=O)Nc2cccc(Cl)c2Cl)CC1
dose: 25.0 mg/kg/injection, schedule: Q01DX009 (ip), vehicle: saline
  T/C: 92 % of control
[8]
  T/C: 87 % of control
[9]
  T/C: 97 % of control and 102 % of control

## COC(=O)n1nc2ccccc2c1N
[8]
  T/C: 96 % of control
[9]
  T/C: 96 % of control
[5]
  T/C: 93 % of control

## Nc1ccc(CS(=O)(=O)O)cc1
[9]
  T/C: 112 % of control
[5]
  T/C: 101 % of control
dose: 400.0 mg/kg/injection, schedule: Q01DX009 (ip), vehicle: saline
  T/C: 101 % of control

## CC(CC(=O)c1ccc2ccccc2c1)C(=O)O (configuration not stated)
dose: 75.0 mg/kg/injection, schedule: Q04DX003 (ip), vehicle: Klucel (hydroxypropylcellulose) (HPC)
  T/C: 97 % of control
dose: 150.0 mg/kg/injection, schedule: Q04DX003 (ip), vehicle: Klucel (hydroxypropylcellulose) (HPC)
  T/C: 92 % of control
dose: 300.0 mg/kg/injection, schedule: Q04DX003 (ip), vehicle: Klucel (hydroxypropylcellulose) (HPC)
  T/C: 107 % of control

## CC1(C)N=C(N)N=C(N)N1CCc1ccccc1
dose: 25.0 mg/kg/injection, schedule: Q01DX001 (ip), vehicle: saline with Tween-80
  T/C: 101 % of control
dose: 50.0 mg/kg/injection, schedule: Q01DX001 (ip), vehicle: saline with Tween-80
  T/C: 104 % of control

## O=C(Nc1ccc(Cl)cc1)SCCSC(=O)Nc1ccc(Cl)cc1
dose: 100.0 mg/kg/injection, schedule: Q04DX002 (ip), vehicle: other
  T/C: 97 % of control and 101 % of control
dose: 100.0 mg/kg/injection, schedule: Q04DX003 (ip), vehicle: other
  T/C: 98 % of control and 105 % of control
dose: 200.0 mg/kg/injection, schedule: Q04DX002 (ip), vehicle: other
  T/C: 93 % of control and 101 % of control
dose: 200.0 mg/kg/injection, schedule: Q04DX003 (ip), vehicle: other
  T/C: 94 % of control and 89 % of control
dose: 400.0 mg/kg/injection, schedule: Q04DX002 (ip), vehicle: other
  T/C: 95 % of control and 90 % of control
dose: 400.0 mg/kg/injection, schedule: Q04DX003 (ip), vehicle: other
  T/C: 95 % of control and 91 % of control
